Measurements reported in ChEMBL document CHEMBL1140941 (J Med Chem, 2009).
The source made the active and inactive calls. No cut-off for these calls is given here.

Columns and labels:
[1] = target: T1, Progesterone receptor (Homo sapiens) (UniProt P06401); assay: Agonist activity at gal-PR expressed in african green monkey CV1 cells co-expressing MH100 by luciferase reporter gene assay; type: functional, cell-based; settings: CV-1
T1 sequence (whole entry): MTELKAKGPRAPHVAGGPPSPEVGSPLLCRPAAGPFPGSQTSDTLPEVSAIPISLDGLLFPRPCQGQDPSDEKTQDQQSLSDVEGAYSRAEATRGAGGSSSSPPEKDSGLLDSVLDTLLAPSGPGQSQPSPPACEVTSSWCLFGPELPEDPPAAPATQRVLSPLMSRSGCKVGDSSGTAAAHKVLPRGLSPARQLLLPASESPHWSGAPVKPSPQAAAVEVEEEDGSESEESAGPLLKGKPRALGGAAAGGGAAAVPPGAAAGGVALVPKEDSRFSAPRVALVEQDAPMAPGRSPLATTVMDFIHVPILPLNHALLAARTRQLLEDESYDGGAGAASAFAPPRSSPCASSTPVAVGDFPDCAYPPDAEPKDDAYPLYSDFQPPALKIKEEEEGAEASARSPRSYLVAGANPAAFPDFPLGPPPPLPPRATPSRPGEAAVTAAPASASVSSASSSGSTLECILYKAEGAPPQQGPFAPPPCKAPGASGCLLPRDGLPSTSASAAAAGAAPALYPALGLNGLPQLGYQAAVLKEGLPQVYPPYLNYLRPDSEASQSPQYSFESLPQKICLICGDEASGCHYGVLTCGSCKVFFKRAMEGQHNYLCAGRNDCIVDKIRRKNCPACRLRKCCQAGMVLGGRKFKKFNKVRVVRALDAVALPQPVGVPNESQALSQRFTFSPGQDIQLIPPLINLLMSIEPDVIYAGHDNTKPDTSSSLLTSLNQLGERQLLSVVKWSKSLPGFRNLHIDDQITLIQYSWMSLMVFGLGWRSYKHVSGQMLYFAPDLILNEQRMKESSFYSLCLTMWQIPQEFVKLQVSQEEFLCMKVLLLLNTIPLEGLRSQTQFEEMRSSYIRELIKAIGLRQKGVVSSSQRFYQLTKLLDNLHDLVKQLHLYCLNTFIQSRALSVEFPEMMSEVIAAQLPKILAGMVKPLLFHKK

[2] = target: T2, Bile acid receptor (Homo sapiens) (UniProt Q96RI1); assay: Agonist activity at human FXR expressed in african green monkey CV1 cells co-expressing ECRE with RXR co-factor up to 10 uM by luciferase reporter gene assay relative to CDCA; type: functional, cell-based; settings: CV-1
T2 sequence (whole entry): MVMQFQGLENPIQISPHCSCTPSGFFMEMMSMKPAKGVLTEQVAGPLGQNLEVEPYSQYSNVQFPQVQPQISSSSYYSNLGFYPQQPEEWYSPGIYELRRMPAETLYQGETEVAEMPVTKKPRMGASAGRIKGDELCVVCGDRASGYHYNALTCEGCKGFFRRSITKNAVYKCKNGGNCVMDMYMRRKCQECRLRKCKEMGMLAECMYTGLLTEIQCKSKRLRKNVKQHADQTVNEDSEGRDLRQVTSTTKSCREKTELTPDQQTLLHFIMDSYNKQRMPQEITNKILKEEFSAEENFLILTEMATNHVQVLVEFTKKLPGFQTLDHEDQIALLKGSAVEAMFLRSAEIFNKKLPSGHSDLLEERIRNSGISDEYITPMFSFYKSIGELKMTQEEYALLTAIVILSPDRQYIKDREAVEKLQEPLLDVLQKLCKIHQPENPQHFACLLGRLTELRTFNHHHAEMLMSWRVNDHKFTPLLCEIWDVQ

[3] = target: Retinoic acid receptor gamma (Homo sapiens) (UniProt P13631); assay: Agonist activity at gal-RARgamma expressed in african green monkey CV1 cells co-expressing MH100 up to 10 uM by luciferase reporter gene assay relative to control; type: functional, cell-based; settings: CV-1
Chain of Retinoic acid receptor gamma (Homo sapiens) (P13631 whole entry): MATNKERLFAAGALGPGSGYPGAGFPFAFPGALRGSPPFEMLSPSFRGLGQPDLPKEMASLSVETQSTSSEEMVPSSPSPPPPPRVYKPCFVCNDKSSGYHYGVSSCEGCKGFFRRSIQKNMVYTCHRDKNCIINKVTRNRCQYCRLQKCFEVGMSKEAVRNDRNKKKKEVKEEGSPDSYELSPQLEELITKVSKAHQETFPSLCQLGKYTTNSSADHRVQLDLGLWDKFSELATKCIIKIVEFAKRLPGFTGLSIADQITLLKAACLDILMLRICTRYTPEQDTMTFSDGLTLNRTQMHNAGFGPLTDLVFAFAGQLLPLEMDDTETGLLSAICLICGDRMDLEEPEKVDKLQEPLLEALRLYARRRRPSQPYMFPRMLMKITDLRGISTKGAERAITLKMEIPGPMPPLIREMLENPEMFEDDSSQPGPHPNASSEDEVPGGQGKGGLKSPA

[4] = target: T3, Estrogen receptor (Homo sapiens) (UniProt P03372); assay: Antagonist activity at gal-ERalpha expressed in african green monkey CV1 cells co-expressing MH100 at 10 uM by luciferase reporter gene assay; type: functional, cell-based; settings: CV-1
T3 sequence (whole entry): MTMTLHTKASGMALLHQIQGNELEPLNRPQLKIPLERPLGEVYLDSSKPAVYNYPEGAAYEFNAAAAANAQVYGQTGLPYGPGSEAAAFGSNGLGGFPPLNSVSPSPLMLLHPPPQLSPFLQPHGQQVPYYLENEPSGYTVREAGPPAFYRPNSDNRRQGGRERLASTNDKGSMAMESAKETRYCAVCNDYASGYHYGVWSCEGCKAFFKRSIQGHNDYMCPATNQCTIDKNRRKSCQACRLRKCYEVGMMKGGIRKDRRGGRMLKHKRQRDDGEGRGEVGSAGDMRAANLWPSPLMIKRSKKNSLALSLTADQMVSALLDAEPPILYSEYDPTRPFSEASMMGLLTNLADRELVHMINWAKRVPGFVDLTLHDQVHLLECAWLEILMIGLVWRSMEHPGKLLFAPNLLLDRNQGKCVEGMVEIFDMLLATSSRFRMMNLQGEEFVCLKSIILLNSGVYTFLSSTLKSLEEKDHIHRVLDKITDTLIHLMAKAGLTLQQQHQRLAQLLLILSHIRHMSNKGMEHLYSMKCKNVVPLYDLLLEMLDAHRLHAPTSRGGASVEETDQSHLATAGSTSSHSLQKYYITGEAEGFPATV

[5] = target: T1, Progesterone receptor (Homo sapiens); assay: Antagonist activity at gal-PR expressed in african green monkey CV1 cells co-expressing MH100 at 10 uM by luciferase reporter gene assay; type: functional, cell-based; settings: CV-1
[6] = AUC (0 to t) in CD rat at 3 mg/kg, iv; type: ADME, organism-based; design: dose 3 mg/kg, route intravenous; settings: plasma

CC(C)OC(=O)C1=CN(C(=O)c2ccc(F)c(F)c2)CC(C)(C)c2c1[nH]c1ccccc21 [TUROFEXORATE ISOPROPYL]
Activity [1]: inactive
Efficacy [2]: 149%
Activity [3]: inactive
inhibition [4]: 24%
inhibition [5]: 14%
AUC(0-t) [6]: 19.1 µM·h
